Legend:
Mus musculus [1] = test: Antinociceptive activity in ICR mouse model of chronic constriction injury-induced neuropathic pain assessed as inhibition of mechanical allodynia at 10 umol/kg, ip administered 7 days post-surgery and measured after 2 hrs post-dose by Von Frey assay relative to control; format: functional
Mus musculus [2] = test: Antinociceptive activity in ICR mouse model of chronic constriction injury-induced neuropathic pain assessed as inhibition of mechanical allodynia at 10 umol/kg, ip administered 7 days post-surgery and measured after 3 hrs post-dose by Von Frey assay relative to control; format: functional
Mus musculus [3] = test: Antinociceptive activity in ICR mouse model of chronic constriction injury-induced neuropathic pain assessed as inhibition of mechanical allodynia at 10 umol/kg, ip administered 7 days post-surgery and measured after 0.5 hrs post-dose by Von Frey assay relative to control; format: functional
Mus musculus [4] = test: Antinociceptive activity in ICR mouse model of chronic constriction injury-induced neuropathic pain assessed as inhibition of mechanical allodynia at 10 umol/kg, ip administered 7 days post-surgery and measured after 1 hr post-dose by Von Frey assay relative to control; format: functional
Mus musculus [5] = test: Protection ratio of antinociceptive activity in ICR mouse model of chronic constriction injury-induced neuropathic pain assessed as inhibition of mechanical allodynia at 10 umol/kg, ip administered 7 days post-surgery and measured after 3 hrs to 1 hrs post-dose by Von Frey assay; format: functional
Mus musculus [6] = test: Antinociceptive activity in ICR mouse model of chronic constriction injury-induced neuropathic pain assessed as inhibition of mechanical allodynia at 10 umol/kg, ip administered 7 days post-surgery and measured after 5 hrs post-dose by Von Frey assay relative to control; format: functional
Mus musculus [7] = test: Effect on nociception on contralateral paw in ICR mouse model of chronic constriction injury-induced neuropathic pain assessed as paw withdrawal threshold at 10 umol/kg, ip administered 7 days post-surgery and measured after 30 mins to 3 hrs post-dose by Von Frey assay; format: organism-based; conditions: in vivo
Mus musculus [8] = test: Antinociceptive activity in ICR mouse model of chronic constriction injury-induced neuropathic pain assessed as inhibition of mechanical allodynia at 1 umol/kg, ip administered 7 days post-surgery and measured after 0.5 hrs post-dose by Von Frey assay relative to control; format: functional
Mus musculus [9] = test: Antinociceptive activity in ICR mouse model of chronic constriction injury-induced neuropathic pain assessed as inhibition of mechanical allodynia at 1 umol/kg, ip administered 7 days post-surgery and measured after 3 hrs post-dose by Von Frey assay relative to control; format: functional
Mus musculus [10] = test: Antinociceptive activity in ICR mouse model of chronic constriction injury-induced neuropathic pain assessed as inhibition of mechanical allodynia at 3 umol/kg, ip administered 7 days post-surgery and measured after 2 hrs post-dose by Von Frey assay relative to control; format: functional
Mus musculus [11] = test: Antinociceptive activity in ICR mouse model of chronic constriction injury-induced neuropathic pain assessed as inhibition of mechanical allodynia at 1 umol/kg, ip administered 7 days post-surgery and measured after 1 hr post-dose by Von Frey assay relative to control; format: functional
Mus musculus [12] = test: Antinociceptive activity in ICR mouse model of chronic constriction injury-induced neuropathic pain assessed as inhibition of mechanical allodynia at 3 umol/kg, ip administered 7 days post-surgery and measured after 5 hrs post-dose by Von Frey assay relative to control; format: functional
Mus musculus [13] = test: Antinociceptive activity in ICR mouse model of chronic constriction injury-induced neuropathic pain assessed as inhibition of mechanical allodynia at 3 umol/kg, ip administered 7 days post-surgery and measured after 1 hr post-dose by Von Frey assay relative to control; format: functional
Mus musculus [14] = test: Antinociceptive activity in ICR mouse model of chronic constriction injury-induced neuropathic pain assessed as inhibition of mechanical allodynia at 3 umol/kg, ip administered 7 days post-surgery and measured after 0.5 hrs post-dose by Von Frey assay relative to control; format: functional
Mus musculus [15] = test: Antinociceptive activity in ip dosed ICR mouse model of chronic constriction injury-induced neuropathic pain assessed as inhibition of mechanical allodynia administered 7 days post-surgery and measured after 1 hr post-dose by Von Frey assay; format: functional
Cannabinoid receptor 2 = Cannabinoid receptor 2 (Rattus norvegicus, UniProt Q9QZN9); test: Antagonist activity at rat brain CB2 receptor expressed in HEK-Flp-In cells in presence of [3H]CP55940 measured after overnight incubation by Bright-Glo luminescence assay; format: cell-based
Sequence of Cannabinoid receptor 2 (Q9QZN9 whole entry, looked up): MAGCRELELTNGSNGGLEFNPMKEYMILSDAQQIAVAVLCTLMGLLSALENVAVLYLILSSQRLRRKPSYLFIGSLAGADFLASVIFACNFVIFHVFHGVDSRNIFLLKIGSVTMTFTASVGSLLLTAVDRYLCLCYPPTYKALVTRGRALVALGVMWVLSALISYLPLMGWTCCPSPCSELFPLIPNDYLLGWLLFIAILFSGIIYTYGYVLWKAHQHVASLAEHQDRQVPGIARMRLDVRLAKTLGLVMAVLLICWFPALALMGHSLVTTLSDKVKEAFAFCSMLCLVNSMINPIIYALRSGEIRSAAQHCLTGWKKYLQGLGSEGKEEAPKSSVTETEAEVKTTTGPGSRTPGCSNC

Mus musculus [16] = test: Antinociceptive activity in ICR mouse model of chronic constriction injury-induced neuropathic pain assessed as inhibition of mechanical allodynia at 1 umol/kg, ip administered 7 days post-surgery and measured after 5 hrs post-dose by Von Frey assay relative to control; format: functional
Mus musculus [17] = test: Antinociceptive activity in ICR mouse model of chronic constriction injury-induced neuropathic pain assessed as inhibition of mechanical allodynia at 1 umol/kg, ip administered 7 days post-surgery and measured after 2 hrs post-dose by Von Frey assay relative to control; format: functional
Cannabinoid receptor 1 = Cannabinoid receptor 1 (Rattus norvegicus, UniProt P20272); test: Antagonist activity at rat brain CB1 receptor expressed in HEK-Flp-In cells in presence of [3H]CP55940 measured after overnight incubation by Bright-Glo luminescence assay; format: cell-based
Sequence of Cannabinoid receptor 1 (P20272 whole entry): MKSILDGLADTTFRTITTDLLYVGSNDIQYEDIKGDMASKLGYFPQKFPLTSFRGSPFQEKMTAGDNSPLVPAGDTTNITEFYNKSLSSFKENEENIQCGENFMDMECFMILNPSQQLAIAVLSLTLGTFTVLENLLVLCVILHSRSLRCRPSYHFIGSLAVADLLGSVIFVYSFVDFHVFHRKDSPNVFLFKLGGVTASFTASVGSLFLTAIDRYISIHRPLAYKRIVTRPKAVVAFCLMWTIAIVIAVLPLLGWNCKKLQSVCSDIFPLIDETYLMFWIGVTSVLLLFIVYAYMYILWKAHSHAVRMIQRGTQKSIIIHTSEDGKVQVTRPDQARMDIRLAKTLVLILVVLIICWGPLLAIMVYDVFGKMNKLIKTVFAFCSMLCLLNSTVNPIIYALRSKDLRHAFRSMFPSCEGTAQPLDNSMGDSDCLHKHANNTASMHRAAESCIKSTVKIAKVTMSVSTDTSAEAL

Mus musculus [18] = test: Antinociceptive activity in ICR mouse model of chronic constriction injury-induced neuropathic pain assessed as inhibition of mechanical allodynia at 3 umol/kg, ip administered 7 days post-surgery and measured after 3 hrs post-dose by Von Frey assay relative to control; format: functional

| Structure (SMILES) | inhibition in vivo at 10 µmol/kg (Mus musculus [1]) [%] | inhibition in vivo at 10 µmol/kg (Mus musculus [2]) [%] | inhibition in vivo at 10 µmol/kg (Mus musculus [3]) [%] | inhibition in vivo at 10 µmol/kg (Mus musculus [4]) [%] | Ratio (Mus musculus [5]) | inhibition in vivo at 10 µmol/kg (Mus musculus [6]) [%] | Activity (Mus musculus [7]) | inhibition in vivo at 1 µmol/kg (Mus musculus [8]) [%] | inhibition in vivo at 1 µmol/kg (Mus musculus [9]) [%] | inhibition in vivo at 3 µmol/kg (Mus musculus [10]) [%] | inhibition in vivo at 1 µmol/kg (Mus musculus [11]) [%] | inhibition in vivo at 3 µmol/kg (Mus musculus [12]) [%] | inhibition in vivo at 3 µmol/kg (Mus musculus [13]) [%] | inhibition in vivo at 3 µmol/kg (Mus musculus [14]) [%] | ED50 (Mus musculus [15]) [µmol/kg] | IC50 (Cannabinoid receptor 2) [µM] | inhibition in vivo at 1 µmol/kg (Mus musculus [16]) [%] | inhibition in vivo at 1 µmol/kg (Mus musculus [17]) [%] | IC50 (Cannabinoid receptor 1) [µM] | inhibition in vivo at 3 µmol/kg (Mus musculus [18]) [%] |
| --- | --- | --- | --- | --- | --- | --- | --- | --- | --- | --- | --- | --- | --- | --- | --- | --- | --- | --- | --- | --- |
| NCCCNC(=O)c1ccc(-c2cc(C(=O)O)cc(-n3cc(-c4ccc(C(F)(F)F)cc4)nn3)c2)s1 | 74 | 30.9 | 81 | 91.5 | 0.34 - 0.63 | 10 |  |  |  |  |  |  |  |  |  |  |  |  |  |  |
| O=C(O)c1cc(-c2ccc(C3CCNCC3)cc2)cc(-c2cn(-c3ccc(C(F)(F)F)cc3)nn2)c1 | 71.4 | 55.1 | 70.7 | 86.8 | 0.34 - 0.63 | 6.7 | Non-Toxic |  |  |  |  |  |  |  |  |  |  |  |  |  |
| O=C(O)c1cc(-c2ccc(C3CCNCC3)cc2)c2ccc(-c3ccc(C(F)(F)F)cc3)cc2c1 [PPTN] | 96.4 | 78.6 | 87.9 | 100 |  | 21.3 | Non-Toxic | 10 | 4.7 | 76.9 | 19.9 | 8.7 | 79.3 | 62.9 | 1.6 | > 50 | 4.7 | 10 | > 50 | 64.7 |
| CC(=O)N1CCC(c2ccc(-c3cc(C(=O)O)cc4cc(-c5ccc(C(F)(F)F)cc5)ccc34)cc2)CC1 |  |  |  |  |  |  | Non-Toxic |  |  |  |  |  |  |  |  |  |  |  |  |  |
| CCC(=O)N1CCC(c2ccc(-c3cc(C(=O)O)cc4cc(-c5ccc(C(F)(F)F)cc5)ccc34)cc2)CC1 | 71.6 | 55.7 | 32.9 | 77.2 | 0.72 - 0.92 | 5.6 |  |  |  |  |  |  |  |  |  |  |  |  |  |  |
| C#CCCCCN1CCC(c2ccc(-c3cc(C(=O)O)cc4cc(-c5ccc(C(F)(F)F)cc5)ccc34)cc2)CC1 | 42.7 | 9.6 | 52.4 | 75.9 | 0.13 | 0 |  |  |  |  |  |  |  |  |  |  |  |  |  |  |
| O=C(O)c1cc(-c2ccc(C3CCNCC3)cc2)cc(-n2cc(-c3ccc(C(F)(F)F)cc3)nn2)c1 | 57.2 | 31.9 | 52.4 | 67.4 |  | 12.7 |  | 8.7 | 8.7 | 44.6 | 18.7 | 0 | 53.3 | 44.6 | 3.5 |  | 8.7 | 18.7 |  | 35.6 |
| O=C(O)c1cc(O)c2ccc(-c3ccc(C(F)(F)F)cc3)cc2c1 | 59.8 | 35.2 | 23.4 | 64.2 | 0.34 - 0.63 | 0 | Non-Toxic |  |  |  |  |  |  |  |  |  |  |  |  |  |

— ChEMBL document CHEMBL4616709, “P2Y14 Receptor Antagonists Reverse Chronic Neuropathic Pain in a Mouse Model” (ACS Med Chem Lett, 2020)
